Measured values from PubChem BioAssay (NCI).
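Five concentrations, 48 hours, 96-well plates. Abbreviation: GI50, concentration required for 50% inhibition of growth. TGI marks complete inhibition of growth.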

Tests used:
Assay in all cases: growth of human tumour cells (NCI), 48 h
KM12 colon = test system: KM12 colon
ACHN renal = test system: ACHN renal
LOX IMVI melanoma = test system: LOX IMVI melanoma
MALME-3M melanoma = test system: MALME-3M melanoma
MDA-N = test system: MDA-N
SF-295 CNS = test system: SF-295 CNS
HL-60(TB) leukemia = test system: HL-60(TB) leukemia
BT-549 breast = test system: BT-549 breast
SK-OV-3 ovarian = test system: SK-OV-3 ovarian
OVCAR-3 ovarian = test system: OVCAR-3 ovarian

Row | SMILES | TGI (KM12 colon) [µM] | TGI (ACHN renal) [µM] | TGI (LOX IMVI melanoma) [µM] | TGI (MALME-3M melanoma) [µM] | TGI (MDA-N) [µM] | TGI (SF-295 CNS) [µM] | TGI (HL-60(TB) leukemia) [µM] | TGI (BT-549 breast) [µM] | TGI (SK-OV-3 ovarian) [µM] | TGI (OVCAR-3 ovarian) [µM] | GI50 (HL-60(TB) leukemia) [µM]
1 | CC1(C)N=C(N)N=C(N)N1c1ccc(CCCCc2ccc(Cl)cc2Cl)cc1 | 2.19 | 16.1 | 16.4 | 16.8 | 2.67 | 22 | > 100 | 6.3 | 24.7 | 5.5 | 
2 | CCOP(=O)(OCC)C(Cc1ccccc1)N=C(c1ccccc1)c1ccccc1 (stereo unspecified) | 32.2 | 28.6 | 24.7 | 40.9 | 29.1 | 25.8 | > 100 | 27 | 28.5 | 30.3 | 
3 | CCOC(=O)C1(Cc2ccccc2)CCN(C(=O)c2ccccc2)C2C1C2(Cl)Cl (stereo unspecified) | 94.9 | 54.8 | 34.5 | 51.5 | 39.6 | 77.2 | 32.6 | 62.2 | > 100 | 47.1 | 
4 | O=C(c1ccco1)N1CCN(C(=O)c2ccco2)C1=S | 15 | 22.3 | 14.9 | 23 | 22.6 | 35.8 | 7.16 | 33.9 | 40.8 | 11.6 | 
5 | c1ccc2c(Cc3c[nH]c4ccccc34)c[nH]c2c1 | 40.5 | > 100 | 49.8 | 51 | 41.5 | 43.8 | 33.4 | 36.8 | 51 | 30.8 | 
6 | C#CCSc1cnc2ccccc2c1Sc1c[nH]c2ccccc2c1=O | 65 | 36.7 | 38.9 | > 100 | > 100 | > 100 | 88.9 | > 100 | > 100 | > 100 | 
7 | COc1ccc(CN=C2Nc3ccncc3S(=O)(=O)N2c2ccccc2)cc1 | > 100 | > 100 | > 100 | > 100 | > 100 | > 100 | 36.8 | 89.4 | > 100 | > 100 | 
8 | CC(=O)O/C(=C(/C#N)C(=O)O)C1C(C(=O)O)C(c2ccccc2[N+](=O)[O-])C=C(c2ccco2)N1c1ccncc1 (stereo unspecified) | 3.14 | 4.5 | 5.78 | 23 | 7.26 | 19.2 | > 100 | 16.3 | 23.9 | 8.07 | 
9 | CC1=NN(C(=O)CC(=O)Nc2cccc(Cl)c2)C(=O)C1N=Nc1ccc(S(=O)(=O)c2ccc(N=NC3C(=O)N(C(=O)CC(=O)Nc4cccc(Cl)c4)N=C3C)cc2)cc1 (stereo unspecified) | > 100 | > 100 | > 100 | > 100 | > 100 | > 100 | > 100 | > 100 | > 100 | > 100 | 
10 | COC(=O)c1ccc(NCC2=CC(=O)c3ccccc3C2=O)cc1 | 33 | 42.4 | 23.3 | 19.9 | 26.6 | 35.1 | > 25.9 | 42.2 | 35.3 | 26.7 | 
11 | Cc1cc2c(cc1Cl)Sc1nnc(C)n1S2(=O)=O | 30.9 | 27.7 | 23.6 | 22.8 | 29.7 | 33.8 | 24.4 | 29.7 | 75.2 | 29.6 | 
12 | C/C=C/[C@@H]1O[C@H](CC#C[Si](C)(C)C)[C@@]2(C=O)C(C)=CC[C@H](C(C)C)[C@@H]12 | 40.8 | 39.9 | 18.2 | 37.2 | 43.9 | 67.3 | 19.2 | 49.7 | > 100 | 42.4 | 
13 | COC(=O)c1cc(C)ccc1CC(Cc1ccccc1C)C(=O)OC (stereo unspecified) | > 100 | > 100 | 28.1 | > 100 | > 100 | > 100 | 36.3 | > 100 | > 100 | > 100 | 
14 | CC(C)(N=NC(C)(C)C1=NCCN1)C1=NCCN1 | > 100 | > 100 | > 100 | > 100 | > 100 | > 100 | > 100 | > 100 | > 100 | > 100 | > 100
15 | Cc1ccc(NNc2cc(=O)[nH]c(=O)[nH]2)cc1Cl | > 100 | 21.4 | 18.4 | 31.9 | 28.6 | > 100 | 18.3 | > 100 | > 100 | 28 | 
16 | CC1C=C(NCC2(CO)CCC2)NC(N)=N1 (stereo unspecified) | > 100 | > 100 | > 100 | > 100 | > 100 | > 100 | > 100 | > 100 | > 100 | > 100 | 
